Source: PubChem BioAssay (NCI)
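Tested at 5 concentrations; 48 h exposure; 96-well plates; endpoints linearly interpolated, else capped at highest concentration. Definition used: TGI = concentration required for complete inhibition of growth.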

What was measured:
Test in all cases: NCI tumour cell line growth inhibition, 48 h
786-0 renal = system: 786-0 renal
A498 renal = system: A498 renal
A549 NSCLC = system: A549 NSCLC
ACHN renal = system: ACHN renal
CAKI-1 renal = system: CAKI-1 renal
CCRF-CEM leukemia = system: CCRF-CEM leukemia
COLO 205 colon = system: COLO 205 colon
DLD-1 colon = system: DLD-1 colon
DMS 114 small cell lung = system: DMS 114 small cell lung
DMS 273 small cell lung = system: DMS 273 small cell lung
EKVX NSCLC = system: EKVX NSCLC
HCC-2998 colon = system: HCC-2998 colon
HCT-116 colon = system: HCT-116 colon
HCT-15 colon = system: HCT-15 colon
HL-60(TB) leukemia = system: HL-60(TB) leukemia
HOP-18 NSCLC = system: HOP-18 NSCLC
HOP-62 NSCLC = system: HOP-62 NSCLC
HOP-92 NSCLC = system: HOP-92 NSCLC
HT29 colon = system: HT29 colon
IGROV1 ovarian = system: IGROV1 ovarian
K-562 leukemia = system: K-562 leukemia
KM12 colon = system: KM12 colon
KM20L2 colon = system: KM20L2 colon
LOX IMVI melanoma = system: LOX IMVI melanoma
LXFL 529 NSCLC = system: LXFL 529 NSCLC
M14 melanoma = system: M14 melanoma
M19-MEL melanoma = system: M19-MEL melanoma
MALME-3M melanoma = system: MALME-3M melanoma
MOLT-4 leukemia = system: MOLT-4 leukemia
NCI-H226 lung = system: NCI-H226 lung
NCI-H23 lung = system: NCI-H23 lung
NCI-H460 lung = system: NCI-H460 lung
NCI-H522 lung = system: NCI-H522 lung
OVCAR-3 ovarian = system: OVCAR-3 ovarian
OVCAR-4 ovarian = system: OVCAR-4 ovarian
OVCAR-5 ovarian = system: OVCAR-5 ovarian
OVCAR-8 ovarian = system: OVCAR-8 ovarian
RPMI-8226 leukemia = system: RPMI-8226 leukemia
RXF-631 renal = system: RXF-631 renal
SF-268 CNS = system: SF-268 CNS
SF-295 CNS = system: SF-295 CNS
SF-539 CNS = system: SF-539 CNS
SK-MEL-2 melanoma = system: SK-MEL-2 melanoma
SK-MEL-28 melanoma = system: SK-MEL-28 melanoma
SK-MEL-5 melanoma = system: SK-MEL-5 melanoma
SK-OV-3 ovarian = system: SK-OV-3 ovarian
SN12C renal = system: SN12C renal
SNB-19 CNS = system: SNB-19 CNS
SNB-75 CNS = system: SNB-75 CNS
SNB-78 CNS = system: SNB-78 CNS
SW-620 colon = system: SW-620 colon
TK-10 renal = system: TK-10 renal
U251 CNS = system: U251 CNS
UACC-257 melanoma = system: UACC-257 melanoma
UACC-62 melanoma = system: UACC-62 melanoma
UO-31 renal = system: UO-31 renal
XF 498 CNS = system: XF 498 CNS
RXF 393 renal = system: RXF 393 renal

## O=C(C(=O)n1ncc(Cl)c(Cl)c1=O)n1ncc(Cl)c(Cl)c1=O
786-0 renal
  TGI: 44.6 µM
A498 renal
  TGI: > 100 µM
A549 NSCLC
  TGI: > 100 µM
ACHN renal
  TGI: 32.9 µM
CAKI-1 renal
  TGI: 44 µM
CCRF-CEM leukemia
  TGI: 29.7 µM
COLO 205 colon
  TGI: 29 µM
DLD-1 colon
  TGI: 32.4 µM
DMS 114 small cell lung
  TGI: > 62.8 µM
DMS 273 small cell lung
  TGI: 44.5 µM
EKVX NSCLC
  TGI: > 83.8 µM
HCC-2998 colon
  TGI: 46.9 µM
HCT-116 colon
  TGI: 29.5 µM
HCT-15 colon
  TGI: 46.5 µM
HL-60(TB) leukemia
  TGI: 22.6 µM
HOP-18 NSCLC
  TGI: 67 µM
HOP-62 NSCLC
  TGI: > 100 µM
HOP-92 NSCLC
  TGI: 49.9 µM
HT29 colon
  TGI: 34 µM
IGROV1 ovarian
  TGI: > 77.3 µM
K-562 leukemia
  TGI: > 100 µM
KM12 colon
  TGI: > 100 µM
KM20L2 colon
  TGI: > 85.8 µM
LOX IMVI melanoma
  TGI: > 100 µM
LXFL 529 NSCLC
  TGI: 41.8 µM
M14 melanoma
  TGI: > 68.7 µM
M19-MEL melanoma
  TGI: 48.7 µM
MALME-3M melanoma
  TGI: 48.1 µM
MOLT-4 leukemia
  TGI: 43.7 µM
NCI-H226 lung
  TGI: > 100 µM
NCI-H23 lung
  TGI: 41.5 µM
NCI-H460 lung
  TGI: > 100 µM
NCI-H522 lung
  TGI: 28.1 µM
OVCAR-3 ovarian
  TGI: 68.2 µM
OVCAR-4 ovarian
  TGI: 36.1 µM
OVCAR-5 ovarian
  TGI: > 100 µM
OVCAR-8 ovarian
  TGI: > 59.9 µM
RPMI-8226 leukemia
  TGI: 26.8 µM
RXF-631 renal
  TGI: > 100 µM
SF-268 CNS
  TGI: > 100 µM
SF-295 CNS
  TGI: > 100 µM
SF-539 CNS
  TGI: > 68.8 µM
SK-MEL-2 melanoma
  TGI: 74.9 µM
SK-MEL-28 melanoma
  TGI: 59.3 µM
SK-MEL-5 melanoma
  TGI: 97.2 µM
SK-OV-3 ovarian
  TGI: > 100 µM
SN12C renal
  TGI: > 65.8 µM
SNB-19 CNS
  TGI: > 100 µM
SNB-75 CNS
  TGI: 97.2 µM
SNB-78 CNS
  TGI: 88.2 µM
SW-620 colon
  TGI: 42.7 µM
TK-10 renal
  TGI: 70.1 µM
U251 CNS
  TGI: > 100 µM
UACC-257 melanoma
  TGI: 35.7 µM
UACC-62 melanoma
  TGI: 32.2 µM
UO-31 renal
  TGI: > 100 µM
XF 498 CNS
  TGI: > 93 µM

## CCCCCCCC1(c2ccc(N)cc2)CCC(=O)NC1=O (configuration not stated)
786-0 renal
  TGI: > 100 µM
A549 NSCLC
  TGI: > 100 µM
ACHN renal
  TGI: 67.3 µM
CAKI-1 renal
  TGI: > 100 µM
COLO 205 colon
  TGI: 52.5 µM
DLD-1 colon
  TGI: > 100 µM
DMS 114 small cell lung
  TGI: 85.3 µM
DMS 273 small cell lung
  TGI: 73.8 µM
EKVX NSCLC
  TGI: > 100 µM
HCC-2998 colon
  TGI: > 100 µM
HCT-15 colon
  TGI: > 100 µM
HL-60(TB) leukemia
  TGI: 36.6 µM
HOP-62 NSCLC
  TGI: > 100 µM
HOP-92 NSCLC
  TGI: 51.9 µM
IGROV1 ovarian
  TGI: > 100 µM
K-562 leukemia
  TGI: > 100 µM
KM12 colon
  TGI: > 100 µM
KM20L2 colon
  TGI: > 100 µM
LOX IMVI melanoma
  TGI: > 100 µM
LXFL 529 NSCLC
  TGI: > 100 µM
M14 melanoma
  TGI: > 100 µM
M19-MEL melanoma
  TGI: > 100 µM
MALME-3M melanoma
  TGI: > 100 µM
MOLT-4 leukemia
  TGI: 65.7 µM
NCI-H23 lung
  TGI: > 100 µM
NCI-H460 lung
  TGI: > 100 µM
NCI-H522 lung
  TGI: 78.6 µM
OVCAR-3 ovarian
  TGI: 81.1 µM
OVCAR-4 ovarian
  TGI: > 100 µM
OVCAR-5 ovarian
  TGI: > 100 µM
OVCAR-8 ovarian
  TGI: > 100 µM
RPMI-8226 leukemia
  TGI: 40.8 µM
RXF 393 renal
  TGI: > 100 µM
RXF-631 renal
  TGI: > 100 µM
SF-268 CNS
  TGI: > 100 µM
SF-295 CNS
  TGI: 88.1 µM
SK-MEL-2 melanoma
  TGI: > 100 µM
SK-MEL-28 melanoma
  TGI: > 100 µM
SK-MEL-5 melanoma
  TGI: 49.6 µM
SK-OV-3 ovarian
  TGI: > 100 µM
SN12C renal
  TGI: > 100 µM
SNB-19 CNS
  TGI: > 100 µM
SNB-75 CNS
  TGI: 96.2 µM
SNB-78 CNS
  TGI: > 100 µM
SW-620 colon
  TGI: > 100 µM
TK-10 renal
  TGI: > 100 µM
UACC-257 melanoma
  TGI: > 100 µM
UACC-62 melanoma
  TGI: > 100 µM
UO-31 renal
  TGI: 74.8 µM
XF 498 CNS
  TGI: 75.2 µM
